Laboratory results as given in PubChem BioAssay AID1963834 (Molecular Pharmacology Branch, DTP, NCI, 2024).
pIC50: −log10 of the molar value.

System: 873145-292-R-J1-PDC complex spheroid viability
Experiment: Anticancer human tumor 873145-292-R-J1-PDC patient-derived renal clear cell carcinoma cell line growth inhibition [POLQ]
Details: for pIC50: curve of first compound; for viability, T/C: stronger effect = lower value
Summary of the method: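 Growth inhibition in 3D: complex spheroids (tumor PDC, HUVEC, MSC) treated with POLQ inhibitor combinations; where Cmax unknown, highest tested concentration 10 microM, except SN-38 at 1 microM.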

[1] = second compound 0.0316 µM, first compound 0.0316 µM
[2] = second compound 0.0316 µM, first compound 0.1 µM
[3] = second compound 0.0316 µM, first compound 0.316 µM
[4] = second compound 0.0316 µM, first compound 1 µM
[5] = second compound 0.1 µM, first compound 0.0316 µM
[6] = second compound 0.1 µM, first compound 0.1 µM
[7] = second compound 0.1 µM, first compound 0.316 µM
[8] = second compound 0.1 µM, first compound 1 µM
[9] = second compound 0.316 µM, first compound 0.0316 µM
[10] = second compound 0.316 µM, first compound 0.1 µM
[11] = second compound 0.316 µM, first compound 0.316 µM
[12] = second compound 0.316 µM, first compound 1 µM
[13] = second compound 1 µM, first compound 0.0316 µM
[14] = second compound 1 µM, first compound 0.1 µM
[15] = second compound 1 µM, first compound 0.316 µM
[16] = second compound 1 µM, first compound 1 µM
[17] = second compound 3.16 µM, first compound 0.0316 µM
[18] = second compound 3.16 µM, first compound 0.1 µM
[19] = second compound 3.16 µM, first compound 0.316 µM
[20] = second compound 3.16 µM, first compound 1 µM
[21] = second compound 10 µM, first compound 0.0316 µM
[22] = second compound 10 µM, first compound 0.1 µM
[23] = second compound 10 µM, first compound 0.316 µM
[24] = second compound 10 µM, first compound 1 µM
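Note: spheroids exposed to compounds for 7 days before viability readout.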
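Throughout, for viability, T/C: luminescence signal used as surrogate for viable cell content; 100% = DMSO vehicle control viability.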

For `CNCc1ccc(-c2[nH]c3cc(F)cc4c3c2CCNC4=O)cc1` + COC1C(OC(N)=O)C(O)C(Oc2ccc3c(O)c(NC(=O)c4ccc(O)c(CC=C(C)C)c4)c(=O)oc3c2C)OC1(C)C, the pIC50 (second compound 0.0316 µM) was less than 5.00, the pIC50 (second compound 0.1 µM) was less than 5.00 and the pIC50 (second compound 0.316 µM) was less than 5.00. For the same compound, the pIC50 (second compound 1 µM) was less than 5.00, the pIC50 (second compound 3.16 µM) was less than 5.00 and the pIC50 (second compound 10 µM) was less than 5.00. For the same compound, the viability, T/C [1] was 106%, the viability, T/C [2] was 96.8% and the viability, T/C [3] was 102%. For the same compound, the viability, T/C [4] was 96.7%, the viability, T/C (second compound 0.0316 µM, first compound 3.16 µM) was 90.7% and the viability, T/C (second compound 0.0316 µM, first compound 10 µM) was 91.6%. It also gave a viability, T/C [5] of 97%, a viability, T/C [6] of 97.8% and a viability, T/C [7] of 88%. The viability, T/C [8] was 95.6%, the viability, T/C (second compound 0.1 µM, first compound 3.16 µM) was 88% and the viability, T/C (second compound 0.1 µM, first compound 10 µM) was 98.3%. For the same compound, the viability, T/C [9] was 94.9%, the viability, T/C [10] was 89.4% and the viability, T/C [11] was 95.8%. For the same compound, the viability, T/C [12] was 89.2%, the viability, T/C (second compound 0.316 µM, first compound 3.16 µM) was 96.1% and the viability, T/C (second compound 0.316 µM, first compound 10 µM) was 104%. It also gave a viability, T/C [13] of 90.4%, a viability, T/C [14] of 98.5% and a viability, T/C [15] of 118%. It also gave a viability, T/C [16] of 86.7%, a viability, T/C (second compound 1 µM, first compound 3.16 µM) of 95.7% and a viability, T/C (second compound 1 µM, first compound 10 µM) of 102%. The viability, T/C [17] was 99.5%, the viability, T/C [18] was 95.8% and the viability, T/C [19] was 98.4%. It also gave a viability, T/C [20] of 92.2%, a viability, T/C (second compound 3.16 µM, first compound 3.16 µM) of 98.1% and a viability, T/C (second compound 3.16 µM, first compound 10 µM) of 96.1%. It also gave a viability, T/C [21] of 98.5%, a viability, T/C [22] of 101% and a viability, T/C [23] of 92.4%. The viability, T/C [24] was 94.7%, the viability, T/C (second compound 10 µM, first compound 3.16 µM) was 98.5% and the viability, T/C (second compound 10 µM, first compound 10 µM) was 102%.

`COc1cccc(OCCCN)c1-c1cc(Nc2cnc(C#N)cn2)n[nH]1` + COC1C(OC(N)=O)C(O)C(Oc2ccc3c(O)c(NC(=O)c4ccc(O)c(CC=C(C)C)c4)c(=O)oc3c2C)OC1(C)C showed a pIC50 (second compound 0.0316 µM) of less than 6.00, a pIC50 (second compound 0.1 µM) of less than 6.00 and a pIC50 (second compound 0.316 µM) of less than 6.00. It also gave a pIC50 (second compound 1 µM) of less than 6.00, a pIC50 (second compound 3.16 µM) of less than 6.00 and a pIC50 (second compound 10 µM) of less than 6.00. For the same compound, the viability, T/C (second compound 0.0316 µM, first compound 0.00316 µM) was 102%, the viability, T/C (second compound 0.0316 µM, first compound 0.01 µM) was 82.4% and the viability, T/C [1] was 62.8%. The viability, T/C [2] was 61.3%, the viability, T/C [3] was 61% and the viability, T/C [4] was 68.7%. It also gave a viability, T/C (second compound 0.1 µM, first compound 0.00316 µM) of 106%, a viability, T/C (second compound 0.1 µM, first compound 0.01 µM) of 93.8% and a viability, T/C [5] of 71.1%. The viability, T/C [6] was 71.5%, the viability, T/C [7] was 62.1% and the viability, T/C [8] was 72.3%. The viability, T/C (second compound 0.316 µM, first compound 0.00316 µM) was 104%, the viability, T/C (second compound 0.316 µM, first compound 0.01 µM) was 84.8% and the viability, T/C [9] was 64.7%. The viability, T/C [10] was 57.8%, the viability, T/C [11] was 71.1% and the viability, T/C [12] was 62.1%. For the same compound, the viability, T/C (second compound 1 µM, first compound 0.00316 µM) was 97.9%, the viability, T/C (second compound 1 µM, first compound 0.01 µM) was 76.3% and the viability, T/C [13] was 62.5%. For the same compound, the viability, T/C [14] was 62.4%, the viability, T/C [15] was 58.7% and the viability, T/C [16] was 72.9%. For the same compound, the viability, T/C (second compound 3.16 µM, first compound 0.00316 µM) was 108%, the viability, T/C (second compound 3.16 µM, first compound 0.01 µM) was 72% and the viability, T/C [17] was 71.9%. It also gave a viability, T/C [18] of 63.8%, a viability, T/C [19] of 68.4% and a viability, T/C [20] of 68.7%. The viability, T/C (second compound 10 µM, first compound 0.00316 µM) was 90.8%, the viability, T/C (second compound 10 µM, first compound 0.01 µM) was 80% and the viability, T/C [21] was 73.1%. It also gave a viability, T/C [22] of 62.6%, a viability, T/C [23] of 66.1% and a viability, T/C [24] of 78.3%.
